In patent US20100069340A1, “PHARMACEUTICAL COMPOSITIONS OF AN SRC KINASE INHIBITOR AND AN AROMATASE INHIBITOR” (Wyeth, priority 2008, published 2010):

Columns and labels:
MDA-MB-361 = assay: Cell proliferation assay (CellTiter Glo), MDA-MB-361; type: cell-based
Procedure: (§1) Cell lines were obtained from ATCC. Estrogen was obtained from SIGMA, 4-hydroxytamoxifen was obtained from SIGMA, Bosutinib was used for these studies. Charcoal-stripped serum and phenol red-free medium was obtained from Invitrogen. CellTiter Glo was obtained from Promega.
(§2) Cell cultures. Proliferation assays with cells in complete fetal calf serum were performed with medium containing phenol red. For all assays examining estrogen-dependence, cells were cultured in phenol red-free medium; DMEM/F12 (MCF7), RPMI1640 (MDA-MB-361, T47D) MEM (BT20, MDA-MB-231) McCoys5A modified (SKBR3), Leibowitz' L15 medium supplemented with 10 ng/mL insulin (MDA-MB-435 and MDA-MB-468) with 10% fetal bovine serum supplemented with glutamine and gentamicin. For proliferation assays, trypsinized cells were subjected to three cycles of centrifugation and resuspension in phenol red-free medium supplemented with charcoal stripped medium (5% final), glutamine and Pen/Strep. Cells were plated on day 0, with or without estrogen (10 nM final concentration). On day 1, 4-hydroxytamoxifen and SKI-606 or DMSO were added as a serial dilution. Cells were incubated for 7 days, after which CellTiter Glo (Promega) was added as recommended by the manufacturer. After mixing and two hours incubation on the bench, plates were read on an Envision reader. […] The 10 uM data point was dropped for these two lines since there was a clear plateau prior to the sharp drop in luminescence observed at 10 uM compound. The IC50 was calculated using a floating minima corresponding to the lowest luminescence value at 5 uM.
(§3) Cell proliferation assays were performed in two formats; a three day proliferation assay in fully supplemented medium with phenol red, and a 7 day proliferation assay in phenol red free medium supplemented with charcoal-stripped medium. […] ER positive T47D cells were slightly more sensitive to SKI-606 in the presence of estrogen. BT20 cells were equally sensitive to SKI-606 in stripped serum medium, regardless of whether estrogen was present.
(§4) Proliferation data for SKI-606 in various breast tumor lines in complete medium (10% FCS) and charcoal stripped serum with no phenol red (no E2, E2) with and without 10 nM estrogen. The complete medium data were obtained in 3-day assays, while stripped serum assays were extended for 7 days with one change of medium at day 5. The IC50 values for the BT20 line was calculated using the “plateau” cell number evident at 5 μM SKI-606.

MCF7 = assay: Cell proliferation assay (CellTiter Glo), MCF7; type: cell-based
Procedure: as §1, §2, §3, §4

4-hydroxytamoxifen
cell proliferation in the absence of estrogen (MDA-MB-361; MDA-MB-361, absence of estrogen): little effect | effect on estrogen-stimulated proliferation (MDA-MB-361; MDA-MB-361, presence of estrogen): inhibited in a dose-dependent manner | estrogen-independent cell proliferation (MCF7; MCF7, absence of estrogen): inhibits | effect on estrogen-stimulated proliferation (MCF7; MCF7, presence of estrogen): inhibited in a dose-dependent manner
